Data on 18 compounds can be found in patent US8110585B2, “Bicyclic compound and pharmaceutical use thereof” (Takeda Pharmaceutical Company Limited, priority 2007, dated 2012).

For data set [1], the target named is T1, human melatonin 1 receptors (human MT1 receptors) (Homo sapiens, UniProt P48039).
T1 construct: expressed in transfected cells; membrane fraction
The data set is described as follows: Melatonin receptor binding inhibitory test, 2-[125I] Iodomelatonin, MT1. The following applies: membrane fraction of CHO-hMelR7 cells, 25° C. for 2.5 hr, read-out: binding inhibitory activity as IC50 value for MT1. The protocol: (§1) Melatonin Receptor Binding Inhibitory Test
(1) Preparation of CHO-hMelR7 Cells expressing Human Melatonin 1 Receptors
A cDNA fragment (SEQ ID NO: 1) encoding full-length of human melatonin 1 receptors (human MT1 receptors) was incorporated into expression vector pAKKO-111H (former name pAKKO1.11H; Biochim Biophys Acta. Vol. 1219(2), pp. 251-259, 1994) to give plasmid pAKKO-hMelR7 for animal cell expression. CHO/dhfr-cells (ATCC, #CRL-9096) were plated at a concentration of 0.3×10^6 cells/dish in a 6 cm culture dish (Becton Dickinson), and cultured under the conditions of 37° C., 5% CO2 for 48 hr. The cells were transfected with pAKKO-hMelR7 plasmid DNA (5 μg) using Cellphect Transfection Kit (Amersham, #27-9268-01). The transfected cells were cultured in Dulbecco's modified Eagle medium (DMEM) (Sigma, #D6046) containing 10% dialyzed FBS (Biowest, #S180D), 1× Non-Essential Amino Acid (Invitrogen, #11140-050) and 50 μg/mL Gentamycin (Invitrogen, #15750-060), and the cell line that stably expressed the plasmid gene was selected. By a receptor binding assay using 2-[^125I] Iodomelatonin, CHO-hMelR7 cell line showing specific binding of 2-[^125I] Iodomelatonin was selected from the obtained clones.
(§2) (3) Preparation of Cellular Membrane Fraction of CHO Cell (CHO-hMelR7 and CHO-hMT2) Stably Expressing Human MT1 and MT2 Receptors
(§3) CHO-hMelR7 and CHO-hMT2 cells were plated using Cellfactory (Nunc, #170009) under the conditions of 1×10^8 cells/2000 mL/flask. The cells were grown to confluent, and recovered by the following method. As the medium for CHO-hMelR7 and CHO-hMT2, MEM a containing 10% FBS and penicillin/streptomycin was used. […]
(§4) The medium was discarded, cells were washed twice with 200 mL of EDTA/PBS(−), 200 mL of EDTA/PBS(−) was further added, and the cells were stood still at room temperature for 20 min until they were released. The cells were recovered in four 50 mL tubes (Becton Dickinson, #352070), and centrifuged at 1,500 rpm for 10 min at 4° C. using a low speed cooling centrifuge (Hitachi, CF7D2). The supernatant was discarded, the pellets in the four tubes were suspended in 10 mL of PBS(−), and combined in one tube (Becton Dickinson, #352070). The mixture was further centrifuged at 1,500 rpm for 10 min at 4° C., and the obtained pellets were suspended in 20 mL of ice-cooled homogenizing buffer [10 mM NaHCO3, 5 mM EDTA, Protease inhibitor Complete (Roche), pH 7.4]. The cell suspension was homogenized 3 times using a polytron homogenizer at 20,000 rpm for 30 sec. The obtained homogenate was centrifuged (2,000 rpm, 10 min, 4° C.) using a low speed cooling centrifuge. The supernatant was recovered in an ultracentrifugation tube and ultracentrifuged (40,000 rpm, 60 min, 4° C.) using an ultracentrifuge (Beckman, L-90K). To the obtained pellets was added a suspending buffer [50 mM Tris-HCl, 1 mM EDTA, Protease inhibitor Complete (Roche), pH 7.4], and the pellets were suspended by pipetting. The protein concentration of this suspension was measured, diluted to 2 mg/mL to give cellular membrane fractions of CHO-hMelR7 and CHO-hMT2 cells. The membrane fractions were dispensed to 1.5 mL tubes (Eppendorf, #0030120.086) by 100 μL, preserved in a freezer (−80° C.) and used for a binding assay. Protein was quantified using BCA protein assay kit (Pierce) with BSA as the standard.
(§5) (4) Preparation of Membrane Fraction Suspension
(§6) Immediately before use, the membrane fractions of CHO-hMelR7 and CHO-hMT2 cells of the above-mentioned (3) were diluted 20-fold with assay buffer (50 mM Tris-HCl, pH 7.7).
(§7) (5) Preparation of 2-[^125I] Iodomelatonin Solution
(§8) 2-[^125I] Iodomelatonin (#NEX236, PerkinElmer) was diluted with the assay buffer to 400 pM for MT1 and 1 nM for MT2.
The assay buffer (80 μL) of the above-mentioned (4) was added to each well of a 96-well plate (type 3363, Corning). Then, a test compound (compound solution diluted with DMSO to 200-fold of the final measurement concentration) was added by 2 μL. […]

The target of data set [2] is T2, human melatonin 2 receptors (human MT2 receptors) (Homo sapiens, UniProt P49286).
T2 construct: expressed in transfected cells; membrane fraction
T2 sequence (P49286 1-362): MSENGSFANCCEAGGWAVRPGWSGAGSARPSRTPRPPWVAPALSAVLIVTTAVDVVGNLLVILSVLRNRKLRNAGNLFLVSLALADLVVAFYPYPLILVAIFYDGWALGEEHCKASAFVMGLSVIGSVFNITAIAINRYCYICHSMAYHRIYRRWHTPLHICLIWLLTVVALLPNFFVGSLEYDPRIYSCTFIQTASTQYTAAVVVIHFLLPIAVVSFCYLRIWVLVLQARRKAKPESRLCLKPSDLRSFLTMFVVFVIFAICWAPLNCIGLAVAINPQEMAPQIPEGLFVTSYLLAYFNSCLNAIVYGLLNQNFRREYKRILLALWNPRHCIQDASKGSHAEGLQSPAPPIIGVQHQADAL
The data set is described as follows: Melatonin receptor binding inhibitory test, 2-[125I] Iodomelatonin, MT2. The following applies: membrane fraction of CHO-hMT2 cells, 25° C. for 2.5 hr, read-out: binding inhibitory activity as IC50 value for MT2. On the procedure:
as §1
(2) Preparation of CHO-hMT2 Cells Expressing Human Melatonin 2 Receptors
A cDNA fragment (SEQ ID NO: 2) encoding full-length of human melatonin 2 receptors (human MT2 receptors) was incorporated into expression vector pCMV-Script (Stratagene, #212220) to give the plasmid that was pCMV-human MT2 receptors expression vector for animal cell expression. CHO-K1 cells (ATCC, #CCL-61) were plated at the concentration of 1.5×10^5 cells/cm^2 in a 6 well plate (ASAHI TECHNO GLASS), and cultured under the conditions of 37° C., 5% CO2 for 24 hr. For gene transfection, solution obtained by blending pCMV-human MT2 receptors expression vector (1.9 μg), Lipofectamine Transfection Reagent (Invitrogen, #18324-012) (11.3 μL) and Minimum Essential Medium Eagle (MEM) medium (Sigma, M8042) (93.8 μL), and reacting at room temperature for 20 min was added to the cells per one well. The transfected cells were cultured in MEM medium containing 10% FBS (Life Technology) and 300 μg/mL Geneticin (GIBCO, #10131), and the cell line that stably expressed the plasmid gene was selected. By a receptor binding assay using 2-[^125I] Iodomelatonin, CHO-hMT2 cell line showing specific binding of 2-[^125I] Iodomelatonin was selected from the obtained clones.
as §2, §3, §4, §5, §6, §7, §8
The assay buffer (80 μL) of the above-mentioned (4) was added to each well of a 96-well plate (type 3363, Corning). […]

T1 sequence (P48039 whole entry): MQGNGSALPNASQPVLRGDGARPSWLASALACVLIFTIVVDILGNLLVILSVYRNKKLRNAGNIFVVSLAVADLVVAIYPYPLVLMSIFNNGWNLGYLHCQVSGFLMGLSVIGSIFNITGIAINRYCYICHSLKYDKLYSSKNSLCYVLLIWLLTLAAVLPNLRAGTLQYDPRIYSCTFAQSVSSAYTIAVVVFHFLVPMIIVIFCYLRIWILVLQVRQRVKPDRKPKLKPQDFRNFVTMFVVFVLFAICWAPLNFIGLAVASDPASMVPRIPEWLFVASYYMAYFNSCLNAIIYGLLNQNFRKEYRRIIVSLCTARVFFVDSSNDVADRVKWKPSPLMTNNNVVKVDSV

`CC(=O)NC[C@@H]1C[C@H]1c1cccc2nn(C)cc12` (relative stereo) [Example 1, trans-N-{[2-(2-methyl-2H-indazol-4-yl)cyclopropyl]methyl}acetamide]: the melting point (in general, the temperature of the solid-liquid transition) fell in the range of 153 to 154 °C. The IC50 (usually the concentration needed to halve the response being measured) in data set [1] is no more than 100 nM. Moreover, in data set [2], the IC50 was no more than 100 nM.

`CCC(=O)NC[C@@H]1C[C@H]1c1cccc2nn(C)cc12` (relative stereo) [Example 2, trans-N-{[2-(2-methyl-2H-indazol-4-yl)cyclopropyl]methyl}propanamide] registered a melting point of 104 to 106 °C. The 50% inhibitory concentration (IC50) in data set [1] is no more than 100 nM. For the same compound, in data set [2], the IC50 was no more than 100 nM.

In turn, `CC(=O)NC[C@@H]1C[C@H]1c1cccn2nc(C)cc12` (relative stereo) [Example 5, trans-N-{[2-(2-methylpyrazolo[1,5-a]pyridin-4-yl)cyclopropyl]methyl}acetamide] came in with a melting point of 114 to 115 °C. The IC50 in data set [1] was no more than 100 nM. Moreover, the IC50 in data set [2] is no more than 100 nM.

As for `CCC(=O)NC[C@@H]1C[C@H]1c1cccn2nc(C)cc12` (relative stereo) [Example 6, trans-N-{[2-(2-methylpyrazolo[1,5-a]pyridin-4-yl)cyclopropyl]methyl}propanamide], the melting point fell in the range of 95 to 98 °C. Moreover, the half-maximal inhibitory concentration (IC50) in data set [1] was no more than 100 nM. For the same compound, the IC50 in data set [2] is no more than 100 nM.

`Cn1cc2c([C@@H]3C[C@H]3CNC(=O)OC(C)(C)C)cccc2n1` (relative stereo) [Example 7, trans-tert-butyl{[2-(2-methyl-2H-indazol-4-yl)cyclopropyl]methyl}carbamate] showed a melting point of 120 to 121 °C.

In the case of `CCC(=O)NC[C@@H]1C[C@@H]1c1cccc2nn(C)cc12` (relative stereo) [Example 14, cis-N-{[2-(2-methyl-2H-indazol-4-yl)cyclopropyl]methyl}propanamide], the melting point lay within 155 to 156 °C. Also, the concentration for half-maximal inhibition (IC50) in data set [1] is no more than 100 nM. Also, the IC50 in data set [2] is no more than 100 nM.

As for `Cc1cc2c([C@@H]3C[C@H]3CNC(=O)OC(C)(C)C)cccn2n1` (relative stereo) [Example 40, trans-tert-butyl{[2-(2-methylpyrazolo[1,5-a]pyridin-4-yl)cyclopropyl]methyl}carbamate], the melting point lay within 105 to 107 °C.

In the case of `Cc1cc2c([C@@H]3C[C@H]3CNC(=O)c3ccccc3)cccn2n1` (relative stereo) [Example 50, trans-N-{[2-(2-methylpyrazolo[1,5-a]pyridin-4-yl)cyclopropyl]methyl}benzamide], the melting point was in the range of 112 to 113 °C.

The compound `CC(=O)NCC1CC1c1cccn2nc(C)nc12` (stereo not shown) [Example 3, N-{[2-(2-methyl[1,2,4]triazolo[1,5-a]pyridin-8-yl)cyclopropyl]methyl}acetamide] registered a melting point of 116 to 118 °C. The IC50 in data set [1] is no more than 100 nM.

As for `CCC(=O)NCC1CC1c1cccn2nc(C)nc12` (stereo not shown) [Example 4, N-{[2-(2-methyl[1,2,4]triazolo[1,5-a]pyridin-8-yl)cyclopropyl]methyl}propanamide], the 50% inhibitory concentration (IC50) in data set [1] and in data set [2] was no more than 100 nM each time.

With `Cn1cc2c([C@H]3C[C@@H]3CNC(=O)OC(C)(C)C)cccc2n1` [Example 8, tert-butyl{[(1S,2S)-2-(2-methyl-2H-indazol-4-yl)cyclopropyl]methyl}carbamate], the melting point was 141 to 142 °C.

As for `Cn1cc2c([C@@H]3C[C@H]3CNC(=O)OC(C)(C)C)cccc2n1` [Example 9, tert-butyl{[(1R,2R)-2-(2-methyl-2H-indazol-4-yl)cyclopropyl]methyl}carbamate], the melting point lay in the range of 140 to 142 °C.

In the case of `Cn1cc2c([C@@H]3C[C@H]3CNC(=O)c3ccc(Br)cc3)cccc2n1` [Example 15, 4-bromo-N-{[(1R,2R)-2-(2-methyl-2H-indazol-4-yl)cyclopropyl]methyl}benzamide], the melting point lay in the range of 140 to 142 °C.

On to `CCc1ccc2nn(C)cc2c1C1CC1CNC(C)=O` (stereo not shown) [Example 32, N-{[2-(5-ethyl-2-methyl-2H-indazol-4-yl)cyclopropyl]methyl}acetamide], for which the IC50 in data set [1] and in data set [2] was no more than 100 nM in each case.

On to `Cc1cc2c([C@H]3C[C@@H]3CNC(=O)OC(C)(C)C)cccn2n1` [Example 41, tert-butyl{[(1S,2S)-2-(2-methylpyrazolo[1,5-a]pyridin-4-yl)cyclopropyl]methyl}carbamate], for which the melting point was in the range of 117 to 118 °C.

For the compound `Cc1cc2c([C@@H]3C[C@H]3CNC(=O)OC(C)(C)C)cccn2n1` [Example 42, tert-butyl{[(1R,2R)-2-(2-methylpyrazolo[1,5-a]pyridin-4-yl)cyclopropyl]methyl}carbamate], the melting point lay within 118 to 119 °C.

Turning to `CC(=O)NCC1CC1c1cccc2nc(C(F)(F)F)cn12` (stereo not shown) [Example 54, N-({2-[2-(trifluoromethyl)imidazo[1,2-a]pyridin-5-yl]cyclopropyl}methyl)acetamide], the melting point fell in the range of 135 to 137 °C.

Turning to `CCC(=O)NCC1CC1c1cccc2nc(C(F)(F)F)cn12` (stereo not shown) [Example 55, N-({2-[2-(trifluoromethyl)imidazo[1,2-a]pyridin-5-yl]cyclopropyl}methyl)propanamide], the melting point lay in the range of 148 to 151 °C.
